Laboratory results as given in patent US20050101542A1, “Combination therapy for controlling appetites” (Regents of the University of California, priority 2002, published 2005).

Key:
iNOS = assay: Transrepression of iNOS expression in mouse jejunum; assay type: in vivo; details: jejunum of C57BL/6J mice; OEA or oleic acid 10, Wy-14643 30 mg kg^−1 i.p.
Description: (§1) Tissues were stored in RnaLater™ (Ambion), extracted total RNA with TRIzol™ (Invitrogen) and quantified it with Ribogreen™ (Molecular Probes). cDNA was synthesized by using SuperscriptII RNase H-reverse transcriptase (Invitrogen).
(§2) Reverse transcription of total RNA (2 μg) was performed using Oligo(dT)12-18 primer (0.2 μg) for 50 min at 42° C. Real Time Quantitative (RTQ) PCR was conducted using an ABI PRISM 7700 sequence detection system (Applied Biosystems). Primer/probe sets were designed using the Primer Express™ software and gene sequences available from the Genebank™ database. Primers and fluorogenic probes were synthesized by TIB (Adelphia). The primer/probe sequences for the mouse genes were:
(§3) RNA levels were normalized by using glyceraldehyde 3-phosphate dehydrogenase (GAPDH) as an internal standard. mRNA levels were measured by generating six-point serial standard curves using mouse total RNA. Estimates of relative mRNA abundance (in arbitrary units) were made by using the CT value (Schmittgen et al., 2000). Relative quantifications of RNAs of interest were made by using the 2^ΔCT formula, in which ΔCT was calculated by subtracting the CT value for GAPDH from the CT value for the gene of interest. This formula was validated for each primer/probe set by using six-point serial standard curves.

[1] = Conditioned taste aversion; assay type: in vivo, rat; details: 20 mg per kg i.p.
Description: Conditioned taste aversion. Rats were water-deprived for 24 h and then accustomed to drink from a graded bottle during a 30-min test period for four days. On day five, water was substituted with a 0.1% saccharin solution and, 30 min later, the animals received injections of vehicle, OEA (20 mg per kg) Or lithium chloride (0.4 M, 7.5 ml per kg). During the following two days, water consumption was recorded over 30-min test periods. The animals were then presented with water or saccharin, and drinking measured.

[2] = Other behavioral assays (elevated plus maze, open field, hot plate, rectal temperature); assay type: in vivo, rat
Description: Other behavioral assays. The elevated plus maze test was conducted as described (Navarro, et al., Neuroreport, 8:491-496 (1997)) after the administration of vehicle or OEA (20 mg per kg, i.p.). Horizontal activity in an open field (Beltramo et al., J. Neurosci., 20:3401-3407 (2000)) and pain threshold in the hot plate test (55° C.) (Beltramo et al., Science, 277:1094-1097 (1997)) were measured 15 min after injection of vehicle or OEA (20 mg per kg). Rectal temperature was measured using a digital thermometer (Martin-Calderón et al., Eur. J. Pharmacol., 344:77-86. (1998)).

[3] = Acute feeding experiments in free-feeding mice (C57BL/6J, wild-type, PPARα-null); assay type: in vivo, mouse
Description: Acute experiments. Drugs or appropriate vehicles (saline, for CCK-8 and d-fenfluramine; dimethylsulfoxide/saline, 70/30, for all other agents; 4 ml-kg^−1; i.p.) were administered at 5:00-5:30 PM to free-feeding mice, which were habituated to the experimental setting.

Soleus muscle = assay: [14C]oleate oxidation to CO2 in soleus muscle; assay type: cell-based, rat; details: 10 μM, 30 min incubation
Description: (§4) This example illustrates the effect of OEA on fat metabolism and methods for studying the same. Oleoylethanolamide (OEA) decreases body weight not only by suppressing appetite, but also by possibly enhancing body fat catabolism. The effects of OEA on fatty acid oxidation in major body-fat burning tissues (soleus muscle, liver, cultured cardiac myocytes and astrocytes) was examined. […] In addition, OEA induces a significant mobilization of triacylglycerol stores from primary white adipose tissue cells. Table 4 details the methods and effects of OEA on fatty acid oxidation in these cells. Structure-activity relationship experiments provide evidence that the effect of OEA on skeletal muscle fatty acid oxidation is specific (FIG. 8).

[4] = Food intake in vagotomized or capsaicin-treated rats, Example 3; assay type: in vivo, rat; details: rats; OEA 10, Wy-14643 40 mg kg^−1 i.p.
Adipocyte = assay: Lypolysis (glycerol release) in adipocytes; assay type: cell-based, rat; details: 30 min incubation
Description: as §4

[5] = target: T1, cannabinoid binding to rat brain membranes (Rattus norvegicus, UniProt P20272); assay: Displacement of cannabinoid binding to rat brain membranes; details: rat brain membranes in vitro
T1 construct: from tissue; host or cells: rat brain membranes
T1 sequence (P20272 whole entry): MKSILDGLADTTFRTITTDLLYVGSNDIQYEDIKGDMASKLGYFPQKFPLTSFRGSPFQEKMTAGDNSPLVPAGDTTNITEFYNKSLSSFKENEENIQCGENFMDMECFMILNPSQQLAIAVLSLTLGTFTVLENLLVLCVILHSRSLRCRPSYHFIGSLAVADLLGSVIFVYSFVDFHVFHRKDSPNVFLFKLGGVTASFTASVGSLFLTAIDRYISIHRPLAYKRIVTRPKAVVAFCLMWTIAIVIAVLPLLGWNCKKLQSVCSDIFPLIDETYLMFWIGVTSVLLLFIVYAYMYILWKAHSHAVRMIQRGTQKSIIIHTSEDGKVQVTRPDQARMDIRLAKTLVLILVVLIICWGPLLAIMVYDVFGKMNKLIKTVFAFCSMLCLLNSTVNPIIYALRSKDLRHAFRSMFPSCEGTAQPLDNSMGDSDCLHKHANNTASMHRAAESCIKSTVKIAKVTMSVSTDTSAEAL

Cardiomyocyte = assay: [14C]oleate oxidation to CO2 in cardiomyocytes; assay type: cell-based, rat; details: 30 min incubation
Description: as §4

[6] = Intracerebroventricular OEA on food intake in 24 h food-deprived rats; assay type: in vivo, rat; details: for food intake 60 min / food intake 120 min / food intake 240 min: 24 h food-deprived rats
Description: Feeding experiments. Acute experiments. Food intake was measured in 24-h food-deprived rats (Navarro, et al., J. Neurochem., 67:1982-1991 (1996)), administering drugs 15 min before food presentation. Subchronic experiments. Ad libitum fed rats received vehicle injections for three days. On day four, the animals were divided in two equal groups and gave them daily injections of vehicle or OEA (5 mg per kg at 1900 h) for 7 consecutive days, while measuring body weight, food intake and water intake.

PPAR-α-regulated genes = assay: Real time quantitative PCR of gene expression in mouse intestine and liver; assay type: in vivo
Description: as §1, §2, §3

CCCCCCCC/C=C\CCCCCCCC(=O)NCCO [OEA, Z-2-hydroxyethyl octadec-9-enamide]
iNOS expression (iNOS): significantly decreased | conditioned taste aversion [1]: little effect | anxiety-like symptoms (elevated plus maze) ([2]; acute): did not produce | body temperature ([2]; acute, 5 or 20 mg per kg): did not alter | pain threshold (hot plate) ([2]; acute, 5 or 20 mg per kg): did not alter | motor activity (open field) ([2]; at a dose substantially higher than those required to produce hypophagia): reduced | meal pattern analysis (eating latency, meal size, post-meal interval) ([3]; C57BL/6J mice): essentially identical | feeding in wild-type mice ([3]; OEA 10 mg-kg^−1 i.p.): reduces feeding | feeding in PPARα-deficient mice ([3]; OEA 10, Wy-14643 40, d-fenfluramine 4 mg-kg^−1, CCK-8 25 μg-kg^−1, i.p.): absent and not | Stimulatory effect of 10 μM OEA on [14C]oleate oxidation to CO2 (Soleus muscle): 36 ± 10 (n = 4) % | food intake after vagotomy or capsaicin treatment [4]: no effect | Stimulatory effect of 10 μM OEA on lypolysis (glycerol release) (Adipocyte): 38 ± 16 (n = 3) % | displacement of cannabinoid binding [5]: did not displace | Stimulatory effect of 10 μM OEA on [14C]oleate oxidation to CO2 (Cardiomyocyte): 37 ± 9 (n = 3) % | food intake 60 min ([6]; OEA 0.4 μg per animal i.c.v.): 4.8 ± 0.4 | food intake 120 min ([6]; OEA 0.4 μg per animal i.c.v.): 6.6 ± 0.4 | food intake 240 min ([6]; OEA 0.4 μg per animal i.c.v.): 8.4 ± 0.4 | food intake 60 min ([6]; OEA 2 μg per animal i.c.v.): 4.9 ± 0.4 | food intake 120 min ([6]; OEA 2 μg per animal i.c.v.): 6.6 ± 0.6 | food intake 240 min ([6]; OEA 2 μg per animal i.c.v.): 8.7 ± 0.5 | food intake 60 min ([6]; OEA 10 μg per animal i.c.v.): 5.9 ± 0.2 | food intake 120 min ([6]; OEA 10 μg per animal i.c.v.): 8.1 ± 0.4 | food intake 240 min ([6]; OEA 10 μg per animal i.c.v.): 9.6 ± 0.7 | effect on food intake after direct injection into the brain ventricles ([6]; i.c.v.): ineffective | expression of PPAR-α-regulated genes (PPAR-α-regulated genes; ileum): not and fail to induce expression | expression of PPAR-α-regulated genes (PPAR-α, FAT/CD36, FATP1) (PPAR-α-regulated genes; jejunum of wild-type mice, OEA or oleic acid 10, Wy-14643 30 mg kg^−1 i.p.): increased the expression | expression of genes not under the control of PPAR-α (I-FABP, PPAR-β/δ, PPAR-γ) (PPAR-α-regulated genes; jejunum, wild-type or PPAR-α-null mice): not affected | gene expression in mice deficient in PPAR-α (PPAR-α-regulated genes; jejunum, OEA 10, Wy-14643 30 mg kg^−1 i.p.): did not stimulate gene expression | transcription of PPAR-α-regulated genes (PPAR-α-regulated genes; liver of wild-type mice): initiated transcription
